Like-named read-outs stand apart in the source and are kept apart here. Peptide text beside a SMILES is read from it.
Columns and labels:
Ad-TSHR-immunized mice [1] = experiment: anti-TSHR antibody titers in serum of treated Ad-TSHR-immunized mice (3rd generation ELISA, inhibition of M22 binding to TSHR); type: in vivo, BALB/c mice; settings: 1 mg/kg IV at 4-weekly intervals, after start of therapy despite continuing immunisations
Experimental: The measurements were carried out in Ad-TSHR-immunized mice treated by either 4-weekly injections with vehicle (0.9% NaCl, “Graves' no therapy”, n=25 mice), or administrations of 1 mg/kg body weight of peptide of the invention 836 (12 mice), or of peptide 829 (13 mice), or of TSHR-Fc (18 mice), or of control peptide 835 (13 mice). In addition, age-matched immunologically naïve unimmunized mice (“healthy”, 19 animals) were investigated. Data are represented as mean±SEM. Significance over time was tested by analysis of variance (ANOVA) of groups at given time points, and controlled by ANOVA for repeated measurements within one group, followed by LSD post-hoc testing. *p<0.05, and **p<0.005, compared to the TSHR-immunized group treated with only NaCl (“Graves' no therapy”).
Animals were kept under standard housing conditions (23±2° C., 55±10% RH) in groups of ten animals in GR1800DD cages (Tecniplast®). […] All guidelines for care of animals were respected. Mice received 10^10 plaque-forming units (pfu) of adenovirus carrying the A-subunit of the TSHR gene. […]
Anti-TSHR autoantibody titers and potency of antibodies to stimulate TSHR-dependent cAMP levels in test cells were determined before start of immunisation (basal value), 56 days after first immunisation, 133 days after first immunisation, and 189 days after first immunisation, and at the end of experiment.

Ad-TSHR-immunized mice [2] = experiment: clinical signs of allergic reaction during therapy of immunized mice; type: in vivo, BALB/c mice; settings: 1 mg/kg IV, had to be treated with clemastin
Experimental: The study protocol used three 3-weekly immunizations (“initiation”) and followed by a “maintenance” phase with further regular 4-weekly boosts until the 9th immunisation, as described before (22). Mice were randomly assigned to therapeutic groups. Therapy (either 1 mg/kg body weight peptides or 0.9% NaCl vehicle control) was given 1 week after the 4th immunization by IV injection into a tail vein, and then continued at 4-weekly intervals, as described before for the treatment of anti-β1AR (16). The fusion protein TSHR-Fc was given IV at identical times at doses of 1 mg/kg, but had to be applied together with the histamine receptor blocker clemastin (Tavegil®) at a dose of 0.02 mg per mouse (25 g body weight) to avoid clinical symptoms of allergic reaction, which had been observed in initial pilot studies of TSHR-Fc administration in mice.

[3] = tested on: monoclonal M22 antibody binding to TSHR; experiment: direct binding/scavenging of anti-TSHR antibody M22 (modified 3rd generation titer assay); parameters: species or system human; settings: 100 μg/mL test substance, M22 final concentration 10 ng/mL
Experimental: In FIG. 8 the effects of peptides on anti-TSHR antibody titers (A) and on cAMP stimulation in TSHR-expressing test cells (B) were studied ex vivo (anti-TSHR-antibody positive serum samples). Each measurement was carried out in 4 samples. Results are shown as % of untreated controls with standard errors of the means (SEM). Significance was tested by analysis of variance (ANOVA) between groups, followed by LSD post-hoc testing. **p<0.001, compared to controls
In order to investigate the direct binding of peptides to anti-TSHR antibodies, Roche's Cobas® assay (04388790) for ECLIA was used with minor modifications: 30 μl of the diluted monoclonal M22-Bio antibody was mixed with 30 μl diluted peptide or TSHR-Fc (final concentration of 100 μg/ml in PBS) and added to the TSHR-pre-coated microtiter plate. After an incubation step for 2 h at room temperature the protocol was continued according to the manufacturer's instructions.

[4] = tested on: immunologically naïve mice; experiment: tolerability and immunogenicity study in immunologically naive mice; settings: for clinical findings / tolerability: 1 mg/kg bw IV, monthly administrations for 6 months
Experimental: (§1) BALB/c mice were adapted for at least one week to start experiments at the age of 12 weeks. Animals were kept as described before. […] Peptides (either 1 mg/kg body weight or NaCl vehicle control) were given by IV injection into a tail vein of these naïve mice (n=5 per group), and then continued at 4-weekly intervals for 6 months, as described before for the therapeutic study in immunized mice. Serum samples were taken at identical intervals.
(§2) 1) “3rd generation assay”: Antibodies against TSHR were detected by a commercially available 3rd generation enzyme immunoassay provided by RSR Limited, Avenue Park, Pentwyn, Cardiff, U.K., in which the of the human Graves patient-derived M22 monoclonal antibody and serum antibodies compete for binding sites on immobilized TSHR. […] The assay was performed using 30 μl 1:10 (PBS) diluted serum in at least double determination according to the manufacturer's instructions.

[5] = tested on: immunologically naïve mice; settings: mouse, in vivo, iv, 1 mg/kg
Experimental: as §1, §2

Row | Compound | time course of anti-TSHR antibody titers (Ad-TSHR-immunized mice [1]) | clinical signs of allergic reactions (Ad-TSHR-immunized mice [2]) | anti-TSHR antibody titers (M22 binding to its substrate) [3] | anti-TSHR antibody titers in naive mice ([4]; 1 mg/kg IV monthly, 6 month observation period) | naive mice with anti-TSHR antibody titers above cut-off limit ([4]; 1 mg/kg IV, after 3 administrations) | clinical findings / tolerability [4] | anti-TSHR antibody titers in naive mice [5] | generation of anti-TSHR antibodies [5]
1 | TSHR-Fc: fusion protein: first 289 amino acids of human TSH receptor (A-subunit), GGR linker and Fc portion of human IgG2 | no trends for further anti-TSHR titer increases after start of therapy | clinical signs of allergic reactions | significantly reduced anti-TSHR antibody titers | significantly (p<0.001) higher than in cyclic peptide-treated or vehicle-treated control mice | 3 out of 6 | developed clinical signs of allergy immediately after 4 administrations | – | –
2 | CC[C@H](C)[C@@H]1NC(=O)[C@H](C(C)C)NC(=O)[C@H]([C@@H](C)O)NC(=O)[C@H](CC(C)C)NC(=O)[C@H](Cc2ccc(O)cc2)NC(=O)[C@H](CCCCN)NC(=O)[C@H](CC(N)=O)NC(=O)[C@H](CCCCN)NC(=O)[C@H](CC(N)=O)NC(=O)[C@H](CC(C)C)NC(=O)[C@H](Cc2ccc(O)cc2)NC(=O)[C@H](C(C)C)NC(=O)[C@H](C)NC(=O)[C@H](CC(=O)O)NC(=O)[C@H](CC(C)C)NC(=O)[C@H](CCCCN)NC(=O)[C@H]([C@@H](C)O)NC(=O)CNC(=O)[C@H](CC(N)=O)NC(=O)[C@H](Cc2ccccc2)NC(=O)[C@H](C)NC(=O)[C@H](Cc2ccc(O)cc2)NC(=O)CNC(=O)[C@H](CC(=O)O)NC1=O [peptide 836] (cyclo(GYAFNGTKLDAVYLNKNKYLTVID)) | no trends for further anti-TSHR titer increases after start of therapy | – | – | – | – | no pathological clinical findings were observed | below background | not observed in any of the 6 animals

Source: patent publication US11459375B2, “Cyclic peptides for the treatment of Graves' disease” (advanceCOR GmbH, priority 2017, dated 2022)
